In the supplement of paper PMC11061612:

What was measured:
[1] = tested on: SAS (Oral Cavity Carcinoma); test: combination Emax (second highest fraction inhibited in the dose matrix, 72 h); higher = more inhibition; extreme values may be limits of the assay
Procedure, shortened: (§1)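 Cell lines in DMEM/F12 or RPMI with 10% FBS were plated in 1536-well plates, held 24 hours at 37°C, 5% CO2, then given two-drug dose matrices for 72 hours (DMSO typically 0.2%). Viability was read by CellTiter-Glo 2.0 luminescence and scaled as inhibition from 0 (vehicle wells) to 1 (blank wells). Combination Emax is the second-highest inhibition in the matrix; Bliss excess is observed combination effect minus expected EA + EB − EA·EB, EA and EB being single-agent effects.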

A673 (Ewing's Sarcoma) = test: as above
Procedure, shortened: as §1

[2] = tested on: OVCAR-5 (Ovarian Carcinoma); test: as above
Procedure, shortened: as §1

[3] = tested on: MHH-CALL-2 (B-Lymphoblastic Leukemia); test: as above
Procedure, shortened: as §1

[4] = tested on: Hs-746T (Gastric Carcinoma); test: as above
Procedure, shortened: as §1

EW-11 (Ewing's Sarcoma) = test: Bliss excess, mean over the matrix (fraction); higher = more synergy
Procedure, shortened: as §1

BE2-M17 (Neuroblastoma) = test: as above
Procedure, shortened: as §1

[5] = tested on: LNZTA3WT4 (Low Grade Glioma); test: as above
Procedure, shortened: as §1

[6] = tested on: TGBC1TKB (Biliary Tract Carcinoma); test: as above
Procedure, shortened: as §1

[7] = tested on: SAS (Oral Cavity Carcinoma); test: as above
Procedure, shortened: as §1

[8] = tested on: Detroit562 (Head and Neck Carcinoma); test: as above
Procedure, shortened: as §1

GAMG (Glioblastoma) = test: as above
Procedure, shortened: as §1

[9] = tested on: KMRC-20 (Kidney Carcinoma); test: as above
Procedure, shortened: as §1

[10] = tested on: LS-123 (Colorectal Carcinoma); test: as above
Procedure, shortened: as §1

[11] = tested on: MHH-CALL-2 (B-Lymphoblastic Leukemia); test: as above
Procedure, shortened: as §1

[12] = tested on: HeLa (Cervical Carcinoma); test: as above
Procedure, shortened: as §1

CAL-72 (Osteosarcoma) = test: as above
Procedure, shortened: as §1

[13] = tested on: NUGC-4 (Gastric Carcinoma); test: as above
Procedure, shortened: as §1

NCI-H2052 (Mesothelioma) = test: as above
Procedure, shortened: as §1

[14] = tested on: SNU-16 (Gastric Carcinoma); test: as above
Procedure, shortened: as §1
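Throughout, for Bliss excess, mean over the matrix: after 72 h of two-drug dosing.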

| SMILES | combination Emax [1] | combination Emax (A673 (Ewing's Sarcoma)) | combination Emax [2] | combination Emax [3] | combination Emax [4] | Bliss excess (EW-11 (Ewing's Sarcoma)) | Bliss excess (BE2-M17 (Neuroblastoma)) | Bliss excess [5] | Bliss excess [6] | Bliss excess [7] | Bliss excess [8] | Bliss excess (GAMG (Glioblastoma)) | Bliss excess [9] | Bliss excess [10] | Bliss excess [11] | Bliss excess [12] | Bliss excess (CAL-72 (Osteosarcoma)) | Bliss excess [13] | Bliss excess (NCI-H2052 (Mesothelioma)) | Bliss excess [14] |
| --- | --- | --- | --- | --- | --- | --- | --- | --- | --- | --- | --- | --- | --- | --- | --- | --- | --- | --- | --- | --- |
| C=CCn1c(=O)c2cnc(Nc3ccc(N4CCN(C)CC4)cc3)nc2n1-c1cccc(C(C)(C)O)n1 [AZD1775] + C1CN(CCC1(C(=O)N[C@@H](CCO)C2=CC=C(C=C2)Cl)N)C3=NC=NC4=C3C=CN4 [Capivasertib] (first compound max 3 µM, partner max 3 µM) | 0.798 | 0.526 | 0.572 | 0.869 | 0.772 | 0.0203 | -0.0406 | -0.0111 | -0.0061 | -0.0206 | 0.0209 | 0.0181 | -0.0646 | -0.0341 | 0.029 | -0.0168 | 0.0259 | -0.14 | -0.0369 |  |
| CC1(C)CCC(CN2CCN(c3ccc(C(=O)NS(=O)(=O)c4ccc(NCC5CCOCC5)c([N+](=O)[O-])c4)c(Oc4cnc5[nH]ccc5c4)c3)CC2)=C(c2ccc(Cl)cc2)C1 [Venetoclax] + C1CN(CCC1(C(=O)N[C@@H](CCO)C2=CC=C(C=C2)Cl)N)C3=NC=NC4=C3C=CN4 [Capivasertib] (first compound max 1 µM, 7x7, partner max 3 µM) | 0.286 | 0.588 | 0.262 | 0.106 | 0.275 | -0.0335 | -0.0682 | -0.0297 | -0.0535 | 0.0016 | -0.0191 | -0.0185 | -0.0172 | -0.0134 | -0.0702 | -0.0669 | -0.04 | -0.0673 | -0.0269 | -0.0496 |
| CC1(C)CCC(CN2CCN(c3ccc(C(=O)NS(=O)(=O)c4ccc(NCC5CCOCC5)c([N+](=O)[O-])c4)c(Oc4cnc5[nH]ccc5c4)c3)CC2)=C(c2ccc(Cl)cc2)C1 [Venetoclax] + CN(C)CCCOc1ccc(-c2ccc3ncc4c(c3c2)n(C2CCOCC2)c(=O)n4C)cn1 [AZD0156] (first compound max 1 µM, 7x7, partner max 1 µM) | 0.256 | 0.835 | 0.405 | 0.153 | 0.226 | 0.0067 | 0.0093 | -0.0469 | -0.0186 | -0.033 | -0.0214 | -0.0225 | -0.0023 | -0.0169 | 0.0128 | -0.0178 | -0.0002 | -0.0644 | -0.0184 | -0.0015 |
| CN(C)CCCOc1ccc(-c2ccc3ncc4c(c3c2)n(C2CCOCC2)c(=O)n4C)cn1 [AZD0156] + O=C(c1cc(Cc2n[nH]c(=O)c3ccccc23)ccc1F)N1CCN(C(=O)C2CC2)CC1 [Olaparib] (first compound max 3 µM, partner max 3 µM) | 0.212 | 0.653 | 0.45 | 0.228 | 0.378 | 0.0995 | 0.0515 | -0.0184 | -0.0294 | 0.0188 | 0.058 | 0.0515 | 0.0163 | -0.0346 | 0.106 | -0.0057 | 0.0475 | -0.0473 | -0.0064 |  |
| Cc1c2c(nn1C)CSCc1cc(n(C)n1)CSc1cc(c3ccccc3c1)OCCCc1c(C(=O)O)n(C)c3c-2c(Cl)ccc13 [AZD5991] + C1CN(CCC1(C(=O)N[C@@H](CCO)C2=CC=C(C=C2)Cl)N)C3=NC=NC4=C3C=CN4 [Capivasertib] (first compound max 1 µM, 7x7, partner max 3 µM) | 0.189 | 0.421 | 0.215 | 1 | 0.337 | -0.02 | -0.0068 | 0.0495 | -0.0159 | -0.0165 | -0.0269 | -0.0239 | -0.0163 | 0.0203 | 0.0182 | 0.0059 | 0.005 | -0.0228 | -0.0083 | -0.0001 |
| Cc1c2c(nn1C)CSCc1cc(n(C)n1)CSc1cc(c3ccccc3c1)OCCCc1c(C(=O)O)n(C)c3c-2c(Cl)ccc13 [AZD5991] + CCN(CCO)CCCOc1ccc2c(Nc3cc(CC(=O)Nc4cccc(F)c4)[nH]n3)ncnc2c1 [AZD2811] (first compound max 1 µM, 7x7, partner max 1 µM) | 0.268 | 0.946 | 0.205 | 0.987 | 0.257 | 0.0342 | 0.0668 | 0.038 | -0.0141 | -0.0092 | 0.0396 | 0.0105 | 0.0023 |  | 0.0503 | 0.0319 | 0.0582 |  | -0.0253 | 0.0377 |
| CN(CCO)CC[C@H](CSc1ccccc1)Nc1ccc(S(=O)(=O)NC(=O)c2ccc(N3CCC([C@@H](O)c4ccccc4-c4ccc(Cl)cc4)CC3)cc2)cc1S(=O)(=O)C(F)(F)F [AZD4320] + Cn1cnc2c(F)c(Nc3ccc(Br)cc3Cl)c(C(=O)NOCCO)cc21 [Selumetinib] (first compound max 1 µM, 7x7, partner max 3 µM) | 0.83 | 0.971 | 0.613 | 0.965 | 0.77 | -0.0786 | 0.0929 | -0.0656 | -0.012 | 0.043 | 0.072 | 0.0039 | 0.0022 |  | 0.298 | -0.0092 | -0.0089 | 0.0784 | 0.0283 | -0.0054 |
| CN(CCO)CC[C@H](CSc1ccccc1)Nc1ccc(S(=O)(=O)NC(=O)c2ccc(N3CCC([C@@H](O)c4ccccc4-c4ccc(Cl)cc4)CC3)cc2)cc1S(=O)(=O)C(F)(F)F [AZD4320] + C1CN(CCC1(C(=O)N[C@@H](CCO)C2=CC=C(C=C2)Cl)N)C3=NC=NC4=C3C=CN4 [Capivasertib] (first compound max 1 µM, 7x7, partner max 3 µM) | 0.132 | 0.905 | 0.17 | 0.311 | 0.46 | 0.0405 | 0.006 | -0.0176 | -0.0306 | -0.0369 | -0.0535 | -0.0661 | -0.0546 |  | -0.0126 | -0.0377 | -0.0184 | -0.0706 | -0.0743 | 0.0015 |
| CN(CCO)CC[C@H](CSc1ccccc1)Nc1ccc(S(=O)(=O)NC(=O)c2ccc(N3CCC([C@@H](O)c4ccccc4-c4ccc(Cl)cc4)CC3)cc2)cc1S(=O)(=O)C(F)(F)F [AZD4320] + C[C@@H](Nc1cc(F)cc(F)c1)c1cc(C(=O)N(C)C)cc2c(=O)cc(N3CCOCC3)oc12 [AZD8186] (first compound max 1 µM, 7x7, partner max 3 µM) | 0.77 | 0.971 | 0.351 | 0.917 | 0.677 | -0.0358 | 0.0115 | -0.0197 | 0.0019 | 0.0033 | 0.0261 | 0.0337 | 0.0459 |  | 0.042 | 0.0156 |  | 0.0385 | -0.0278 | 0.0286 |
| CN(CCO)CC[C@H](CSc1ccccc1)Nc1ccc(S(=O)(=O)NC(=O)c2ccc(N3CCC([C@@H](O)c4ccccc4-c4ccc(Cl)cc4)CC3)cc2)cc1S(=O)(=O)C(F)(F)F [AZD4320] + CN(C)CCCOc1ccc(-c2ccc3ncc4c(c3c2)n(C2CCOCC2)c(=O)n4C)cn1 [AZD0156] (first compound max 1 µM, 7x7, partner max 1 µM) | 0.0348 | 0.929 | 0.164 | 0.391 | 0.38 | -0.0102 | -0.0171 | -0.0259 | -0.022 | -0.0472 | -0.0332 | -0.0237 | -0.0377 |  | 0.106 | -0.0321 | -0.0292 | -0.0513 | -0.0383 | -0.0207 |
| CN(CCO)CC[C@H](CSc1ccccc1)Nc1ccc(S(=O)(=O)NC(=O)c2ccc(N3CCC([C@@H](O)c4ccccc4-c4ccc(Cl)cc4)CC3)cc2)cc1S(=O)(=O)C(F)(F)F [AZD4320] + C[C@@H]1COCCN1C2=NC(=NC(=C2)C3(CC3)[S@](=N)(=O)C)C4=C5C=CNC5=NC=C4 [AZD6738] (first compound max 1 µM, 7x7, partner max 10 µM) | 0.902 | 1 | 0.842 | 0.921 | 0.782 | 0.012 | -0.0458 | -0.0029 | -0.0093 | -0.0255 | -0.015 | -0.0756 | -0.0289 |  | 0.0042 | -0.0319 | 0.05 | -0.0172 | -0.0021 | 0.0219 |
| CN(CCO)CC[C@H](CSc1ccccc1)Nc1ccc(S(=O)(=O)NC(=O)c2ccc(N3CCC([C@@H](O)c4ccccc4-c4ccc(Cl)cc4)CC3)cc2)cc1S(=O)(=O)C(F)(F)F [AZD4320] + C=CCn1c(=O)c2cnc(Nc3ccc(N4CCN(C)CC4)cc3)nc2n1-c1cccc(C(C)(C)O)n1 [AZD1775] (first compound max 1 µM, partner max 1 µM) | 0.647 | 1 | 0.357 | 0.739 | 0.738 | 0.091 | 0.0199 | -0.0201 | 0.0352 | 0.05 | -0.0067 | 0.0041 | 0.0331 |  | 0.14 | -0.0523 | 0.0392 | -0.0217 | 0.0004 | 0.0049 |
| COc1cccc(OCCCN)c1-c1cc(Nc2cnc(C#N)cn2)n[nH]1 [Prexasertib] + Cc1cc2ncnn2cc1Nc1ncc2c(n1)n(C1CCOCC1)c(=O)n2C [AZD7648] (first compound max 1 µM, 7x7, partner max 10 µM) | 0.926 | 0.875 | 0.829 |  | 0.78 | -0.0303 | 0.0047 | -0.064 | -0.0747 | -0.0247 | -0.0342 | -0.0214 | -0.0474 | -0.0141 |  | 0.0133 | -0.112 | 0.0137 | -0.0349 | -0.0059 |
